Numbers after ± are expanded uncertainties.
Conditions: 100 kPa, Liquid, capillary rise

interfacial tension (302.15 K) | interfacial tension (313.15 K) | interfacial tension (333.15 K) | interfacial tension (343.15 K) | interfacial tension (298.15 K) | interfacial tension (324.15 K) | SMILES | further results
7.28 ± 0.08 mN/m | 7.47 ± 0.08 mN/m | 7.64 ± 0.08 mN/m | 7.59 ± 0.08 mN/m |  |  | CCCCCCCO [heptan-1-ol] + O | interfacial tension (323.15 K): 7.61 ± 0.08 mN/m
 |  |  |  | 50.6 ± 0.6 mN/m |  | CCCCCCC [heptane] + O | interfacial tension (304.15 K): 50.1 ± 0.6 mN/m; interfacial tension (314.15 K): 49.3 ± 0.6 mN/m; interfacial tension (324.65 K): 48.4 ± 0.4 mN/m; interfacial tension (335.65 K): 47.4 ± 0.4 mN/m
49.7 ± 0.6 mN/m |  | 47 ± 0.4 mN/m | 46.2 ± 0.4 mN/m | 50 ± 0.6 mN/m |  | CCCCCC [hexane] + O | interfacial tension (315.65 K): 48.5 ± 0.6 mN/m; interfacial tension (322.15 K): 47.9 ± 0.6 mN/m
 |  | 4.11 ± 0.09 mN/m | 3.48 ± 0.08 mN/m |  | 4.62 ± 0.08 mN/m | CCCCCC(=O)O [hexanoic acid] + O | interfacial tension (304.65 K): 5.57 ± 0.09 mN/m; interfacial tension (313.65 K): 5.19 ± 0.08 mN/m
 | 50 ± 0.6 mN/m |  | 47.6 ± 0.4 mN/m |  | 49.2 ± 0.6 mN/m | CCCCCCCCC [nonane] + O | interfacial tension (303.15 K): 50.9 ± 0.6 mN/m; interfacial tension (333.65 K): 48.4 ± 0.4 mN/m
 |  | 48 ± 0.4 mN/m | 47.1 ± 0.4 mN/m |  |  | CCCCCCCC [octane] + O | interfacial tension (312.65 K): 50.5 ± 0.6 mN/m; interfacial tension (323.65 K): 49.7 ± 0.6 mN/m; interfacial tension (330.65 K): 48.8 ± 0.6 mN/m
